pIC50: −log10 of the molar value. One block for each compound: values may come before it.
How the values were obtained:
PDE1 = PDE1 inhibition assay; type: biochemical
Description: Reactions were initiated by addition of the cyclic nucleotide substrate, and reactions were allowed to proceed for 1 h at room temperature before being terminated through mixing with 20 μL (0.2 mg) yttrium silicate SPA beads (PerkinElmer).

C57Bl/6J mice = experiment: Locomotor activity and contextual fear conditioning in C57Bl/6J mice; type: in vivo; settings: gavage, 5 days
Description: The exposure of both compounds was also evaluated in the plasma, brain, and eye. […] During the treatment period all animals were assessed for contextual fear conditioning and a subset of 7 animals per group was evaluated for locomotor activity. On Day 5, plasma, brain, and eye tissue were collected 30 minutes after dosing from 3 animals per treated group to measure concentrations of test item.

[1] = system: K562 erythroleukemic cells; experiment: cGMP in cultured K562 cells; type: cell-based; settings: 16 hours
Description: Hydroxyurea was included as a comparator as it is currently the only FDA approved treatment for this disease (Charache et al., N Engl J Med., 332(20):1317-22. (1995)). One of the proposed mechanisms of action of HU in SCD is that it may generate NO and modulation of intracellular levels of the NO second messenger, cGMP, may represent an effective and cell-specific approach for amplifying intracellular NO-dependent signaling.
K562 cells were cultured at 37° C. in IMDM® to which the required concentrations of test items or dimethyl sulfoxide (DMSO; negative Control) had been added. Plated cells were maintained at 37° C. for 16 hours at the end of which the amount of cGMP was detected by enzyme immunoassay.

[2] = system: K562 erythroleukemic cells; experiment: HbF in cultured K562 cells; type: cell-based; settings: 3 days
Description: K562 cells were cultured at 37° C. in IMDM® to which the required concentrations of test items or DMSO (negative control) had been added. Plated cells were maintained at 37° C. for 3 days at the end of which the presence of HbF within cells was detected by flow cytometry.

[3] = system: Berkeley sickle cell transgenic mice; experiment: HbF positive and sickled red blood cells in Berkeley sickle cell transgenic mice; type: in vivo; settings: 30 mg/kg/day Compound P3.1 or 100 mg/kg/day HU, gavage, 30 days
Description: This study assessed the effects of chronic dosing (30 day) of Compound P3.1 and HU on HbF and cell sickling in a mouse model of sickle cell disease. Berkeley sickle cell transgenic mice (Hbatm1PazHbbtm1Tow Tg(HBA-HBBs)41Paz/J) were divided into groups of 7 to 8 animals and were dosed once daily, by gavage, for 30 days with either vehicle (PEG:water), 30 mg/kg/day of Compound P3.1, or 100 mg/kg/day of HU. This mouse genotype mimics the genetic, hematologic and histopathologic features that are found in humans afflicted with sickle cell anemia, including irreversibly sickled RBCs, anemia and multi-organ pathology. Blood was collected from treated animals on Day 30 for limited routine hematology as well as derivation of the percent of sickled and HbF positive RBCs and total bilirubin. At termination, the spleen was removed and weighed.

HbSS-Townes mice = experiment: Microvascular stasis and hematology in HbSS-Townes mice; type: in vivo
Description: The ability of Compound P3.1 to reduce vaso-occulsion was assessed in HbSS-Townes transgenic sickle mice after transient hypoxia and re-oxygenation. This study assessed the effects of repeated (10 days) oral dosing of Compound P3.1 and HU on microvascular stasis and other hematological markers of sickle cell disease, after transient hypoxia and re-oxygenation, in Townes transgenic sickle mice, a mouse model of sickle cell disease (Hba^tm1(HBA)Tow Hbb^tm2(HBG1,HBB*)Tow/Hbb^tm3(HBG1,HBB)Tow/J). HbSS-Townes mice were divided into groups of 3 mice and were then dosed orally via drinking water with Compound P3.1 at 10 mg/kg/day, Compound P3.1 at 30 mg/kg/day, HU (100 mg/kg/day), or a combination of Compound P3.1 and HU (at doses of 30 and 100 mg/kg/day, respectively) for 10 days. A final group received water containing 0.08% methylcellulose, the vehicle used to prepare the test items, and served as controls. On Day 7 of treatment, the mice were implanted with dorsal skin-fold chambers (DSFC), and on Day 10 of treatment, 20-23 flowing subcutaneous venules in the DSFC window were selected and mapped. After venule selection and mapping, mice were placed in a chamber and exposed to a hypoxic atmosphere (7% O2/93% N2) for 1 hour, after which they were returned to room air. All of the selected venules were re-examined after 1 and 4 hours of re-oxygenation in room air and the number of static (no flow) venules was counted and expressed as percent stasis. On completion of these measurements, blood was collected for clinical pathology with a focus on hematological measures associated with sickle cell disease.

[4] = system: TNF-α activated human endothelial cells; experiment: Micro-channel PMN adhesion assay under flow (FIG. 9); type: cell-based
Description: In this study, the effects of Compound P3.1 on PMN adhesion to TNF-α activated human endothelial cell monolayers under flow conditions are investigated. It has been validated in vitro dynamic assay mimics neutrophil recruitment to endothelial cell monolayers under inflammatory conditions (TNF-α activation). In this assay, both control and sickle PMNs adhere to endothelial cells but to different degrees, reflecting in vivo conditions. The human dermal microvascular endothelial cell line HMEC-1 is used in this approach. The potential inhibitory effect of Compound P3.1 is tested in parallel and compared with the effect of HU and other PDE9 inhibitors.
In a first step, the effects of 1 uM Compound P3.1 and 10 uM HU were tested by incubating blood samples from healthy volunteers (n=3-6) (i.e., donors or donor cells) with these molecules.
Adhesion of PMNs from healthy volunteers was assessed under flow conditions, mimicking blood flow, in micro channels (Venaflux, Cellix, Ireland) coated with endothelial cell monolayers cultivated under inflammatory conditions. The adhesion assay was performed with whole fresh blood, previously incubated or not with Compound P3.1, to be closer to the physiological condition of circulation in a person, and to study the interaction between the different blood cells with PMNs.

[5] = system: TNF-α activated endothelium; experiment: Micro-channel assay of platelet, PMN and RBC binding (FIG. 10); type: cell-based, human; settings: Compound P3.1 2 or 3 hours, HU 3 hours; bound cells at 30 min
Description: In another assay, using the same method, the reduction of PMN and RBC bindings to TNF-α activated endothelium in a micro channel well was confirmed. Platelet, PMN, and RBC in blood samples from 5 healthy normal volunteers (donors) were labelled with fluorescent dyes. The blood samples were incubated with Compound P3.1 for 2 hours or 3 hours, or HU for 3 hours, prior to running them on micro channels that were previously coated with endothelial cells activated with TNF-α. The % of bound cells was quantified at 30 min. Results are shown in FIG. 10A, FIG. 10B, and FIG. 10C.

[6] = system: CD34+ derived red blood cells from SCD subjects; settings: 5 days
[7] = Compound P3.1 30 mg/kg/day, HU 100 mg/kg/day, or both, 10 days

- pIC50 (PDE1): 5.60
- conditioned freezing vs vehicle controls (C57Bl/6J mice; 30 mg/kg/day): not observed
Structure (SMILES): C[C@@H]1CN(Cc2ncccn2)C[C@H]1c1nc2c(cnn2C2CCOCC2)c(=O)[nH]1 (single isomer, unassigned) [AF27873]
- conditioned freezing vs vehicle controls (C57Bl/6J mice; 10 mg/kg/day): significantly (p<0.05) more conditioned freezing

Structure (SMILES): NC(=O)NO [Hydroxyurea, reference compound]
- effect on cGMP levels [1]: dose-dependent and statistically significant increases in cGMP levels
- HbF positive cells ([2]; 100 μM): 92.6%
- effect on HbF-positive cells by concentration [2]: statistically significant increases in HbF-positive cells at concentrations of 10 μM and above (but not at 1 and 3 μM)
- RBC count, hemoglobin concentration or hematocrit [3]: not associated with any apparent alterations
- neutrophil levels [3]: reduced neutrophil levels
- spleen weight [3]: statistically significant decreases
- total bilirubin [3]: statistically significant decreases
- total leucocyte count [3]: statistically significant decreases
- percentage of HbF positive RBCs ([3]; vs controls): increases in the percentage of HbF positive RBCs
- percentage of sickled RBCs ([3]; vs controls): statistically significant decreases in the percentage of sickled RBCs
- microvascular stasis (HbSS-Townes mice; 30 mg/kg/day Compound P3.1 or 100 mg/kg HU, drinking water, 10 days, 1 and 4 hours post hypoxia): statistically significant reductions in stasis
- total WBC numbers (HbSS-Townes mice; Compound P3.1 30 mg/kg/day or HU 100 mg/kg/day, 10 days): reduce total WBC numbers
- vessel occlusion induced by transient hypoxia and re-oxygenation (HbSS-Townes mice; Compound P3.1 30 mg/kg/day, HU 100 mg/kg/day, or both): effectively reduced
- number of HbF positive red cells (HbSS-Townes mice; [7]): increase the number of HbF positive red cells
- proportion of sickled RBCs (HbSS-Townes mice; [7]): reduce the proportion of sickled RBCs
- adhesion of high-binding donor cells ([4]; 1 uM Compound P3.1 or 10 uM HU, whole blood of healthy volunteers): reduced the binding of 2 of 3 of the high binding donors
- toxicity to donor samples ([4]; 10 uM HU): 3 of 9 of the donor samples did not survive HU treatment
- platelet binding [5]: did not impact platelet binding
- amount of HbF within cells (mean MFI) ([6]; 30 μM HU, remaining 3 subjects): 19,383
- mean MFI of HbF relative to controls ([6]; 30 μM HU, remaining 3 subjects): 258%
- percentage of HbF positive CD36+ cells (mean) ([6]; 30 μM HU, remaining 3 subjects): 23.9%
- cell death ([6]; human, 30 μM): greater than 80%
- viability ([6]; human, 30 μM): < 80%

— patent US20190307754A1, “PDE9 INHIBITORS FOR TREATMENT OF PERIPHERAL DISEASES” (IMARA, INC., priority 2016, published 2019)
